Test in all cases: relative viability (nuclei count vs DMSO), 5 days (fraction); higher = more cells survive
Compound in the test “Bicalutamide + Foretinib”: CC(O)(CS(=O)(=O)c1ccc(F)cc1)C(=O)Nc1ccc(C#N)c(C(F)(F)F)c1 [Bicalutamide] + COc1cc2c(Oc3ccc(NC(=O)C4(C(=O)Nc5ccc(F)cc5)CC4)cc3F)ccnc2cc1OCCCN1CCOCC1 [Foretinib] (partner 0.25 µM)
In outline: (§1)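 Lung cancer cell lines, seeded in 1536-well plates, were treated the following day by pin tool with a single drug or with five library-drug doses (not always all listed) in √10 steps on top of a fixed anchor-drug dose. Cells were fixed and nuclei stained in one step after 5 days, and nuclei were counted. Relative viability is the nuclei count for treated wells divided by that for vehicle wells, reported as medians of duplicate plates.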

Compound in the test “Bromopyruvate + AZD7762”: C(C(=O)C(=O)O)Br [Bromopyruvate] + NC(=O)Nc1cc(-c2cccc(F)c2)sc1C(=O)N[C@H]1CCCNC1 [AZD7762] (partner 0.2 µM)
In short, it runs like this: as §1

Compound in the test “Bromopyruvate + Olaparib”: C(C(=O)C(=O)O)Br [Bromopyruvate] + O=C(c1cc(Cc2n[nH]c(=O)c3ccccc23)ccc1F)N1CCN(C(=O)C2CC2)CC1 [Olaparib] (partner 8 µM)
In outline: as §1

Compound in test [1]: CC(O)(CS(=O)(=O)c1ccc(F)cc1)C(=O)Nc1ccc(C#N)c(C(F)(F)F)c1 [Bicalutamide] + C[C@@H](Oc1cc(-c2cnn(C3CCNCC3)c2)cnc1N)c1c(Cl)ccc(F)c1Cl [Crizotinib] (partner 1 µM)
In outline: as §1

From the supplement of paper PMC10307832 come the findings set out here.

As to HOP-62, the relative viability in the test with Bicalutamide + Foretinib (first compound 0.08 µM) was found to be 1.11; with Bicalutamide + Foretinib (first compound 0.253 µM), 1.13; in the test with Bicalutamide + Foretinib (first compound 0.8 µM), 1.29; with Bicalutamide + Foretinib (first compound 2.53 µM) it was 1.26; with Bromopyruvate + AZD7762 (first compound 1 µM) it was 0.498; with Bromopyruvate + AZD7762 (first compound 3.162 µM) it was 0.573. Also, the relative viability with Bromopyruvate + AZD7762 (first compound 10 µM) came to 0.473; with Bromopyruvate + AZD7762 (first compound 31.62 µM) it was 0.444; in the test with Bromopyruvate + AZD7762 (first compound 100 µM), 0.665; in the test with Bromopyruvate + Olaparib (first compound 1 µM), 0.373; with Bromopyruvate + Olaparib (first compound 3.162 µM), 0.432; in the test with Bromopyruvate + Olaparib (first compound 10 µM) it was 0.798. In addition, the relative viability in the test with Bromopyruvate + Olaparib (first compound 31.62 µM) came out at 0.525; in the test with Bromopyruvate + Olaparib (first compound 100 µM) it was 0.157; in test [1] (first compound 0.08 µM), 0.807; in test [1] (first compound 0.253 µM), 0.936; in test [1] (first compound 0.8 µM) it was 1.33; in test [1] (first compound 2.53 µM), 1.

For LC-2-ad, the relative viability in the test with Bicalutamide + Foretinib (first compound 0.08 µM) was determined as 0.969; with Bicalutamide + Foretinib (first compound 0.253 µM), 0.829; in the test with Bicalutamide + Foretinib (first compound 0.8 µM) it was 1.02; in the test with Bicalutamide + Foretinib (first compound 2.53 µM), 1.03; with Bromopyruvate + AZD7762 (first compound 1 µM), 0.885; in the test with Bromopyruvate + AZD7762 (first compound 3.162 µM), 0.863. Moreover, the relative viability in the test with Bromopyruvate + AZD7762 (first compound 10 µM) is 0.881; with Bromopyruvate + AZD7762 (first compound 31.62 µM), 0.812; with Bromopyruvate + AZD7762 (first compound 100 µM), 0.799; in the test with Bromopyruvate + Olaparib (first compound 1 µM), 0.816; in the test with Bromopyruvate + Olaparib (first compound 3.162 µM), 0.665; in the test with Bromopyruvate + Olaparib (first compound 10 µM), 0.352. In addition, the relative viability with Bromopyruvate + Olaparib (first compound 31.62 µM) was 0.666; with Bromopyruvate + Olaparib (first compound 100 µM), 0.664; in test [1] (first compound 0.08 µM) it was 0.495; in test [1] (first compound 0.253 µM), 0.427; in test [1] (first compound 0.8 µM), 0.462; in test [1] (first compound 2.53 µM), 0.482.

Regarding LCLC-97TM1, the relative viability with Bicalutamide + Foretinib (first compound 0.08 µM) is 0.871; with Bicalutamide + Foretinib (first compound 0.253 µM), 0.923; with Bicalutamide + Foretinib (first compound 0.8 µM), 1.04; with Bicalutamide + Foretinib (first compound 2.53 µM) it was 0.96; with Bromopyruvate + AZD7762 (first compound 1 µM) it was 0.224; with Bromopyruvate + AZD7762 (first compound 3.162 µM), 0.375. Moreover, the relative viability came out at 0.207 with Bromopyruvate + AZD7762 (first compound 10 µM); 0.275 with Bromopyruvate + AZD7762 (first compound 31.62 µM); 0.236 with Bromopyruvate + AZD7762 (first compound 100 µM); 0.467 with Bromopyruvate + Olaparib (first compound 1 µM); 0.458 with Bromopyruvate + Olaparib (first compound 3.162 µM); 0.481 with Bromopyruvate + Olaparib (first compound 10 µM). Besides, the relative viability in the test with Bromopyruvate + Olaparib (first compound 31.62 µM) is 0.352; with Bromopyruvate + Olaparib (first compound 100 µM), 0.212; in test [1] (first compound 0.08 µM) it was 0.478; in test [1] (first compound 0.253 µM), 0.369; in test [1] (first compound 0.8 µM), 0.317; in test [1] (first compound 2.53 µM) it was 0.301.

In the case of LCLC-103H, the relative viability is 0.748 with Bicalutamide + Foretinib (first compound 0.08 µM); 0.702 in the test with Bicalutamide + Foretinib (first compound 0.253 µM); 0.907 with Bicalutamide + Foretinib (first compound 0.8 µM); 0.698 in the test with Bicalutamide + Foretinib (first compound 2.53 µM); 0.726 with Bromopyruvate + AZD7762 (first compound 1 µM); 0.804 with Bromopyruvate + AZD7762 (first compound 3.162 µM). Further, the relative viability with Bromopyruvate + AZD7762 (first compound 10 µM) is 0.951; with Bromopyruvate + AZD7762 (first compound 31.62 µM), 0.751; with Bromopyruvate + AZD7762 (first compound 100 µM), 0.901; in the test with Bromopyruvate + Olaparib (first compound 1 µM), 0.744; in the test with Bromopyruvate + Olaparib (first compound 3.162 µM), 0.773; with Bromopyruvate + Olaparib (first compound 10 µM), 0.752. Besides, the relative viability is 0.848 with Bromopyruvate + Olaparib (first compound 31.62 µM); 0.809 with Bromopyruvate + Olaparib (first compound 100 µM); 1.06 in test [1] (first compound 0.08 µM); 1.04 in test [1] (first compound 0.253 µM); 1 in test [1] (first compound 0.8 µM); 1.02 in test [1] (first compound 2.53 µM).

LK-2: the relative viability is 1.44 in the test with Bicalutamide + Foretinib (first compound 0.08 µM); 0.992 in the test with Bicalutamide + Foretinib (first compound 0.253 µM); 1.63 in the test with Bicalutamide + Foretinib (first compound 0.8 µM); 1.32 in the test with Bicalutamide + Foretinib (first compound 2.53 µM); 0.423 in the test with Bromopyruvate + AZD7762 (first compound 1 µM); 0.458 in the test with Bromopyruvate + AZD7762 (first compound 3.162 µM). Also, the relative viability with Bromopyruvate + AZD7762 (first compound 10 µM) is 0.266; in the test with Bromopyruvate + AZD7762 (first compound 31.62 µM), 0.474; with Bromopyruvate + AZD7762 (first compound 100 µM), 0.387; with Bromopyruvate + Olaparib (first compound 1 µM), 0.827; with Bromopyruvate + Olaparib (first compound 3.162 µM) it was 0.816; in the test with Bromopyruvate + Olaparib (first compound 10 µM) it was 0.815. Further, the relative viability in the test with Bromopyruvate + Olaparib (first compound 31.62 µM) is 0.591; in the test with Bromopyruvate + Olaparib (first compound 100 µM), 0.717; in test [1] (first compound 0.08 µM) it was 0.252; in test [1] (first compound 0.253 µM), 0.209; in test [1] (first compound 0.8 µM) it was 0.2; in test [1] (first compound 2.53 µM) it was 0.225.
